According to patent publication EP4763837A1, “PHOTOCHROMIC COMPOUND, CURABLE COMPOSITION, OPTICAL ARTICLE, LENS, AND EYEGLASSES” (TOKUYAMA CORPORATION, priority 2023, dated 2025):
Where “and” joins values, the source holds several entries; their conditions need not be identical. Identical values can stand only once.

Legend:
Format in all cases: physicochemical
[1] = Photochromic property of photochromic laminate made by coating method; settings: for Residual ratio: laminate by coating method, A96/A0 x 100 after 96 hours accelerated degradation, xenon weather meter X25
Source text: First, the photochromic compound obtained in Example 1, a photoinitiator, and a polymerizable compound were mixed to obtain a curable composition.
The polymerizable compound was a combination of the following radical polymerizable monomers:
Polyethylene glycol dimethacrylate (average molecular weight: 736): 42 parts by mass • Polyethylene glycol dimethacrylate (average molecular weight: 536): 12 parts by mass • Trimethylolpropane methacrylate: 38 parts by mass γ-Methacryloyloxypropyltrimethoxysilane: 2 parts by mass Glycidyl methacrylate: 1 part by mass.
Note that, in the curable composition, the photochromic compound was added in an amount of 0.25 mmol taking a total amount of the radical polymerizable monomers as 100 g.
Phenylbis(2,4,6-trimethylbenzoyl)phosphine oxide (photoinitiator: Omnirad 819): 0.3 parts by mass Ethylene bis(oxyethylene) bis[3-(5-tert-butyl-4-hydroxy-m-tolyl) propionate] (stabilizer, Irganox 245): 1 part by mass Bis(1,2,2,6,6-pentamethyl-4-piperidyl)sebacate: 3 parts by mass Leveling agent (L-7001) manufactured by DuPont Toray Specialty Materials K.K.: 0.1 parts by mass.
Using this curable composition, a photochromic laminate was obtained by a lamination method including polymerization as follows.
First, a thiourethane plastic lens with a center thickness of 2 mm and a refractive index of 1.60 was prepared as an optical substrate. Note that, the thiourethane plastic lens had been alkaline-etched in a 10% sodium hydroxide aqueous solution at 50°C for 5 minutes in advance, and then thoroughly washed with distilled water.
A spin coater (1H-DX2, manufactured by MIKASA CO., LTD) was used to coat a surface of the above-mentioned plastic lens with a moisture-curing primer (product name: TR-SC-P, manufactured by Tokuyama Corporation) at a rotation speed of 70 rpm for 15 seconds, followed by 1000 rpm for 10 seconds. Then, about 2 g of the photochromic curable composition obtained above was spin-coated at a rotation speed of 60 rpm for 40 seconds, followed by 600 rpm for 10 to 20 seconds so as to achieve a photochromic coating layer with a thickness of 40 µm.
The lens of which surface had been coated with the photochromic curable composition (photochromic coating layer) was irradiated with light for 90 seconds in a nitrogen gas atmosphere using a metal halide lamp with an output of 200 mW/cm^2 to cure the coating. The resultant was then further heated at 110°C for 1 hour to produce a photochromic laminate with a photochromic layer.
Photochromic laminates were produced using the photochromic compounds obtained in Examples 2 to 20 in the same manner as in Example 21.
Photochromic laminates were obtained using photochromic compounds represented by Formulae (A) to (D) below in the same manner as in Example 21. [drawing 89] [drawing 90] [drawing 91] [drawing 92] [drawing 93]
The resulting photochromic laminates were evaluated by the below-mentioned methods. • (1) Photochromic property • [1] Maximum absorption wavelength (λmax): This is the maximum absorption wavelength after color development determined by a spectrophotometer manufactured by Otsuka Electronics Co., Ltd. (instantaneous multichannel photo detector MCPD3000) and was used as an index of a color tone upon color development. • [2] Color developing density at 23°C (A23): This is a difference between an absorbance {ε(240)} after irradiation with light at 23°C for 240 seconds and an absorbance ε(0) when not irradiated with light at the maximum absorption wavelength and was used as an index of a color developing density. The higher this value is, the better a photochromic property is. • [3] Color fading half-life at 23°C [τ1/2 (sec).)]: This is a period of time taken by an absorbance at the maximum absorption wavelength of a sample to decrease to 1/2 of {ε(240)-ε(0)} when irradiation is stopped after irradiation with light at 23°C for 240 seconds, and was used as an index of a color fading rate. The shorter this period of time is, the faster the color fading rate is. • [4] […]

[2] = Photochromic property of binder sheet (photochromic layer made by binder method); settings: for Residual ratio: A96/A0 x 100 after 96 hours accelerated degradation, xenon weather meter X25; for Color developing density at 23°C: absorbance difference after 240 seconds irradiation at the maximum absorption wavelength of the same line
Method: (§1) The resulting photochromic laminates were evaluated by the below-mentioned methods. • (1) Photochromic property • [1] Maximum absorption wavelength (λmax): This is the maximum absorption wavelength after color development determined by a spectrophotometer manufactured by Otsuka Electronics Co., Ltd. (instantaneous multichannel photo detector MCPD3000) and was used as an index of a color tone upon color development. • [2] Color developing density at 23°C (A23): This is a difference between an absorbance {ε(240)} after irradiation with light at 23°C for 240 seconds and an absorbance ε(0) when not irradiated with light at the maximum absorption wavelength and was used as an index of a color developing density. The higher this value is, the better a photochromic property is. • [3] Color fading half-life at 23°C [τ1/2 (sec).)]: This is a period of time taken by an absorbance at the maximum absorption wavelength of a sample to decrease to 1/2 of {ε(240)-ε(0)} when irradiation is stopped after irradiation with light at 23°C for 240 seconds, and was used as an index of a color fading rate. The shorter this period of time is, the faster the color fading rate is. • [4] Residual ratio (A96/A0 x 100): The resulting photochromic plastic lens was subjected to accelerated degradation for 96 hours using a xenon weather meter X25 manufactured by Suga Test Instruments Co., Ltd. Color developing densities were then evaluated before and after a test, and a color developing density before the test (A0) and a color developing density after the test (A96) were measured. A ratio (A96/A0) was determined as a residual ratio and was used as an index of color development durability. The higher the residual ratio is, the more durable the color development is.
A binder sheet was produced as follows. The binder sheet was made by laminating a first optical sheet, a first adhesive layer, a photochromic layer, a second adhesive layer, and a second optical sheet in this order. A polycarbonate sheet with a thickness of 400 µm was used as the first optical sheet and the second optical sheet.
A 2 L four-necked flask equipped with a stirring blade, a condense tube, a thermometer, and a nitrogen gas inlet tube was charged with 315 parts by mass of polycarbonate diol with a number average molecular weight of 1000, 100 parts by mass of isophorone diisocyanate, and 72 parts by mass of toluene and reacted under a nitrogen atmosphere at 100°C for 7 hours. Thus, a urethane prepolymer with a terminal isocyanate group was synthesized. After the reaction of the above-mentioned urethane prepolymer was completed, the resulting reaction liquid was cooled to about 0°C and dissolved in 205 parts by mass of tertiary-butyl alcohol and 382 parts by mass of diethyl ketone, and then a temperature of the resulting liquid was kept at 0°C. Next, a mixed solution of 21.3 parts by mass of bis-(4-aminocyclohexyl)methane serving as a chain extender and 20 parts by mass of diethyl ketone was added dropwise thereto within 30 minutes and reacted at 0°C for 1 hour. Then, 8.1 parts by mass of 1,2,2,6,6-pentamethyl-4-aminopiperidine was added dropwise thereto and reacted at 0°C for 1 hour to obtain a solution of a terminal non-reactive urethane urea resin in diethylketone.
One hundred parts by mass of the resulting solution of a terminal non-reactive urethane urea resin, 6.3 parts by mass of Example 1 (a photochromic compound represented by Formula (1-7), an isomer mixture of 4,4'-methylenebis(cyclohexylisocyanate) (polyisocyanate compound)), 0.4 parts by mass of ethylenebis(oxyethylene) bis[3-(5-tert-butyl-4-hydroxy-m-tolyl) propionate] serving as an antioxidant, and 0.06 parts by mass of L-7001 manufactured by DuPont Toray Specialty Materials K.K. serving as a surfactant were added and stirred and mixed at room temperature to obtain a composition for forming a photochromic layer. […]

[3] = Photochromic property of photochromic cured product made by kneading method; settings: for Residual ratio: A96/A0 x 100 after 96 hours accelerated degradation, xenon weather meter X25; for Color developing density at 23°C: absorbance difference after 240 seconds irradiation at the maximum absorption wavelength of the same line
Method: as §1
First, the photochromic compound obtained in Example 1, an additive, and a polymerizable compound were mixed to obtain a curable composition. The polymerizable compound was a combination of the following polymerizable monomers: • · 1,3-Bis(isocyanatomethyl)cyclohexane: 36.7 parts by mass • · Pentaerythritol tetrakis(3-mercaptopropionate): 39.4 parts by mass • · Polyoxyethylene polyoxypropylene lauryl ether (WONDERSURF 140 manufactured by AOKI OIL INDUSTRIAL Co., Ltd.): 17.4 parts by mass • · 1-Decanethiol: 2.8 parts by mass • · RX-1 prepared by the method described in Patent Document 14: 3.8 parts by mass
Note that, in the curable composition, the photochromic compound was added in an amount of 0.106 mmol taking a total amount of the polymerizable monomers as 100 g.
The following additives were used: • · Dimethyltin dichloride: 0.05 parts by mass • · Irganox 245: 0.1 parts by mass • · 2-Ethylhexyl […]: 0.6 parts by mass
After the thus-prepared curable composition was thoroughly defoamed, it was poured into a glass mold with a gap of 1 mm and polymerized by casting polymerization. […] After the polymerization, the resulting cured product was removed from the glass mold to obtain a photochromic cured product with a thickness of 1 mm. The resulting photochromic cured product was evaluated in the same manner as for Example 23.
Photochromic cured products were produced using the photochromic compounds shown in Table 4 in the same manner as in Example 50.

[4] = Solubility of photochromic compound in polymerizable compounds; parameters: key: 1: No haze is seen when checked under transmission of light, and the sample is completely dissolved.; 2: A very thin haze is seen to the extent that it can be seen under transmission of light.; 3: A thin haze that can be seen under transmission of light is seen.; 4: A haze can be seen even without transmission of light; settings: 35 µmol/g in radical polymerizable compound composition of Example 21, 65 to 70°C; for Dissolution for 15 min / Dissolution for 30 min / Dissolution for 45 min: stirring and ultrasonic irradiation; for Dissolution for 1 hour: head reads 60 min in Tables 8 to 14
Method: The photochromic compounds according to Examples and Comparative examples shown in Table 5 were evaluated for solubility in polymerizable compounds.
Specifically, a sample was prepared by adding each of the photochromic compounds to the composition, which consisted of a radical polymerizable compound, among the curable compositions used in Example 21.
Note that, this test was performed using "YOKAI-KUN USS-1" manufactured by NIHONSEIKI KAISHA LTD. under the following conditions: • Dissolution temperature: 65 to 70°C • Stirring condition: Stirring dial of 5. Ultrasonic irradiation condition: Irradiation interval of 3 sec.
Dissolution was checked every 15 minutes up to 1 hour later, the sample was visually checked by transmitting light through the sample, and a degree of dissolution was evaluated according to the following four evaluation criteria.
• 1: No haze is seen when checked under transmission of light, and the sample is completely dissolved. • 2: A very thin haze is seen to the extent that it can be seen under transmission of light. • 3: A thin haze that can be seen under transmission of light is seen. • 4: A haze can be seen even without transmission of light.
A shorter time required for the evaluation result to be 1 means higher solubility.

Row | Structure (SMILES) | Color fading half-life at 23°C [1] | Residual ratio [1] | Residual ratio [2] | Color developing density at 23°C [2] | Residual ratio [3] | Color developing density at 23°C [3] | Dissolution for 15 min [4] | Dissolution for 30 min [4] | Dissolution for 45 min [4] | Dissolution for 1 hour [4]
1 | CCCC1(C)c2cc(C)ccc2-c2c1c1c(c3cc(C)ccc23)OC(c2ccc(C)cc2)(c2ccc(OC)cc2)C=C1 (centres unmarked) [Formula (1-5)] | 2.28 min | 62% | 82% | 0.65 - and 1.11 - | 71% | 0.66 - and 1.10 - |  |  |  | 
2 | CCCCC1(C)c2cc(-c3ccc(C)cc3)ccc2-c2c1c1c(c3cc(OC)c(OC)cc23)OC(c2ccc(OC)cc2)(c2ccc(OC)cc2)C=C1 (centres unmarked) [Formula (5-6)] |  |  | 80% and 81% | 1.33 - and 0.84 - |  |  |  |  |  | 
3 | CCCCCCC1(CC)c2ccccc2-c2c1c1c(c3cc(OC)ccc23)OC(c2ccc(C)cc2)(c2ccc(N(C)c3ccccc3)cc2)C=C1 (centres unmarked) [Formula (7-4)] |  | 60% |  |  | 67% and 66% | 0.63 - and 1.13 - |  |  |  | 
4 | CCCCCC1(CCC)c2cc(N(c3ccccc3)c3ccccc3)ccc2-c2c1c1c(c3cc(OC)ccc23)OC(c2ccc(OC)cc2)(c2ccc(OC)cc2)C=C1 (centres unmarked) [Formula (8-3)] | 1.67 min |  |  |  | 72% and 71% | 1.07 - and 0.96 - |  |  |  | 
5 | CCCCC1(CCC)c2cc(C)ccc2-c2c1c1c(c3cc(OC)c(-c4ccc(N5CCOCC5)cc4)cc23)OC(c2ccc(OC)cc2)(c2ccc(N3CCOCC3)cc2)C=C1 (centres unmarked) [Formula (10-1)] | 1.42 min |  |  |  | 70% and 69% | 1.10 - and 1.07 - | 3 | 2 | 1 | 1
6 | CCCCCCC1(CC)c2cc(-c3ccc(OC(C)C)cc3)ccc2-c2c1c1c(c3cc(OC)c(-c4ccc(OC(C)C)cc4)cc23)OC(c2ccc(OC)cc2)(c2ccc(OCCC)cc2)C=C1 (centres unmarked) [Formula (11-1)] |  | 69% 69% | 92% and 91% | 1.21 - and 1.03 - |  |  |  |  |  | 
7 | CCCC1(CC)c2cc(C)ccc2-c2c1c1c(c3cc(C)c(-c4ccc(OC)cc4)cc23)OC(c2ccc(OC)cc2)(c2ccc(N(c3ccccc3)c3ccccc3)cc2)C=C1 (centres unmarked) [Formula (12-2)] |  |  |  |  | 66% and 65% | 0.64 - and 1.23 - |  |  |  | 
8 | CCCCCC1(CC)c2cc(OC(F)(F)F)ccc2-c2c1c1c(c3cc(OC)ccc23)OC(c2ccc(OC)cc2)(c2ccc(OC)cc2)C=C1 (centres unmarked) [Formula (15-1)] |  |  | 90% and 91% | 0.61 - and 0.73 - |  |  | 3 | 2 | 1 | 1
9 | CCCCC1(CC)c2cc(-c3ccc(C(C)(C)C)cc3)ccc2-c2c1c1c(c3cc(OC)c(N4CCCCC4)cc23)OC(c2ccc(OC)cc2)(c2ccc(OC)cc2)C=C1 (centres unmarked) [Formula (17-2)] |  |  | 68% and 70% | 1.68 - and 0.84 - | 58% and 59% |  |  |  |  | 
